Measured values reported in patent US20230212131A1, “COLLAGEN 1 TRANSLATION INHIBITORS AND METHODS OF USE THEREOF” (Anima Biotech Inc., priority 2020, published 2023).

tested on: collagen 1 (COL1); test: WI-38 collagen 1 inhibition assay; type: cell-based, human; settings: Cellular EC50, WI-38 cells; values are classes of LogEC50
Excerpt: All compounds were profiled for cellular potency in inhibition of collagen 1 (COL1) protein translation using a phenotypic screening platform.
WI-38 cells (ATCC® CCL-75™) were maintained in MEM EAGLE (NEAA) W. GLUTAMIN (Biological Industries, Cat. 06-1040-15-1A) containing 10% fetal bovine serum (FBS) and 1% Penicillin-Streptomycin Solution. To synchronize the cells (cell cycle synchronization) prior to induction of collagen synthesis, the cells were starved using DMEM-low glucose supplemented with 0.25% FBS for two hours and then without FBS for 24 hours. To induce collagen synthesis, the cells were treated with a collagen induction cocktail for the indicated time. Compounds were added with induction.
Cells in 96-well or 384-well plates were fixed for 20 min in 4% paraformaldehyde (PFA, ENCO, Cat. sc-281692). Following two washes with 1×PBS, cells were treated with hydrogen peroxide (Acros, Cat: 7722-84-1) for 10 minutes and then washed twice with 1×PBS. Cells were then incubated over-night at 4° C. with Anti-Collagen I (Sigma-Aldrich, Cat: C 2456) antibody and washed three times with 1×PBS. Cells were then incubated with a suitable secondary fluorescently-tagged antibody and nuclei stained with DAPI, for 1 hour, and then washed 3 times with 1×PBS.
Cell images were taken with Operetta (Perkin Elmer, USA), a wide-field fluorescence microscope at 20× magnification. After acquisition, the images were transferred to Columbus software (Perkin-Elmer) for image analysis. In Columbus, cells were identified by their nucleus, using the “Find Nuceli” module and cytoplasm was detected based on the secondary antibody channel. Subsequently, the fluorescent signal was enumerated in the identified cell region. Data was exported to a data analysis and visualization software, Tibco Spotfire, USA.

Compound | COL1 Efficacy (LogEC50)
CC(=O)N1CCN(c2ccc(C(=O)Nc3nc(-c4ccccc4Cl)cs3)s2)CC1 [Compound 463, 5-(4-acetylpiperazin-1-yl)-N-(4-(2-chlorophenyl)thiazol-2-yl)thiophene-2-carboxamide] | +++ (+++: <−6)
CN1CCC[C@H]1C(=O)N1CCN(c2ccc(C(=O)Nc3nc(-c4ccccc4Cl)cs3)nc2)CC1 [Compound 466, N-(4-(2-chlorophenyl)thiazol-2-yl)-5-(4-(methylprolyl)piperazin-1-yl)picolinamide] | +++ (+++: <−6)
CN1CCCC(C(=O)N2CCN(c3ccc(C(=O)Nc4nc(-c5ccccc5Cl)cs4)nc3)CC2)C1 (stereo not drawn) [Compound 467, N-(4-(2-chlorophenyl)thiazol-2-yl)-5-(4-(1-methylpiperidine-3-carbonyl)piperazin-1-yl)picolinamide hemiformate] | +++ (+++: <−6)
COCc1ccccc1-c1csc(NC(=O)c2ccc(N3CCC(O)CC3)cn2)n1 [Compound 468, 5-(4-hydroxypiperidin-1-yl)-N-(4-(2-(methoxymethyl)phenyl)thiazol-2-yl)picolinamide] | +++ (+++: <−6)
CN1CCC(C(=O)N2CCN(c3ccc(C(=O)Nc4nc(-c5ccccc5Cl)cs4)nc3)CC2)C1 (stereo not drawn) [Compound 482, N-(4-(2-chlorophenyl)thiazol-2-yl)-5-(4-(1-methylpyrrolidine-3-carbonyl)piperazin-1-yl)picolinamide] | +++ (+++: <−6)
CN1CCC(C(=O)N2CCN(c3ccc(C(=O)Nc4nc(-c5ccccc5Cl)cs4)nc3)CC2)CC1 [Compound 483, N-(4-(2-chlorophenyl)thiazol-2-yl)-5-(4-(1-methylpiperidine-4-carbonyl)piperazin-1-yl)picolinamide] | +++ (+++: <−6)
CN1CCC[C@@H](C(=O)N2CCN(c3ccc(C(=O)Nc4nc(-c5ccccc5Cl)cs4)nc3)CC2)C1 [Compound 485, (R)—N-(4-(2-chlorophenyl)thiazol-2-yl)-5-(4-(1-methylpiperidine-3-carbonyl)piperazin-1-yl)picolinamide] | +++ (+++: <−6)
CN1CCC[C@H](C(=O)N2CCN(c3ccc(C(=O)Nc4nc(-c5ccccc5Cl)cs4)nc3)CC2)C1 [Compound 486, (S)—N-(4-(2-chlorophenyl)thiazol-2-yl)-5-(4-(1-methylpiperidine-3-carbonyl)piperazin-1-yl)picolinamide] | +++ (+++: <−6)
O=C(Nc1nc(-c2ccccc2Cl)cs1)c1ccc(Br)cc1 [compound 310] | +++ (+++: <−6)
O=C(Nc1nc(-c2cc(Cl)sc2Cl)cs1)c1ccc(Cl)cc1 [compound 311] | ++ (++: −5 to −6)
O=C(Nc1nc(-c2cc(Cl)sc2Cl)cs1)c1ccccc1 [compound 312] | ++ (++: −5 to −6)
Cc1ccc(C(=O)Nc2nc(-c3cc(Cl)sc3Cl)cs2)cc1 [compound 313] | +++ (+++: <−6)
CC(C)=CC(=O)Nc1nc(-c2cc(Cl)sc2Cl)cs1 [compound 314] | ++ (++: −5 to −6)
Cc1ccc(C(=O)Nc2nc(-c3ccccc3Cl)cs2)cn1 [compound 318, N-[4-(2-chlorophenyl)thiazol-2-yl]-6-methyl-pyridine-3-carboxamide] | +++ (+++: <−6)
Cc1ncc(C(=O)Nc2nc(-c3ccccc3Cl)cs2)cn1 [compound 320, N-[4-(2-chlorophenyl)thiazol-2-yl]-2-methyl-pyrimidine-5-carboxamide] | ++ (++: −5 to −6)
CN1CCN(c2ccc(C(=O)Nc3nc(-c4ccccc4Cl)cs3)cc2)CC1 [compound 322, N-[4-(2-chlorophenyl)thiazol-2-yl]-4-(4-methylpiperazin-1-yl)benzamide] | +++ (+++: <−6)
CN1CCC(C(=O)Nc2nc(-c3ccccc3Cl)cs2)CC1 [compound 324, N-[4-(2-chlorophenyl)thiazol-2-yl]-1-methyl-piperidine-4-carboxamide] | ++ (++: −5 to −6)
Cc1ccc(C(=O)Nc2nc(-c3ccccc3Cl)cs2)nc1 [compound 329, N-[4-(2-chlorophenyl)thiazol-2-yl]-5-methyl-pyridine-2-carboxamide] | ++ (++: −5 to −6)
COc1cnc(C(=O)Nc2nc(-c3ccccc3Cl)cs2)cn1 [compound 330, N-[4-(2-chlorophenyl)thiazol-2-yl]-5-methoxy-pyrazine-2-carboxamide] | ++ (++: −5 to −6)
O=C(Nc1nc(-c2ccccc2Cl)cs1)c1ccc(N2CCOCC2)cn1 [compound 339, N-[4-(2-chlorophenyl)thiazol-2-yl]-5-morpholino-pyridine-2-carboxamide] | +++ (+++: <−6)

Compound | COL1 Efficacy (LogEC50)
COc1ncc(C(=O)Nc2nc(-c3ccccc3Cl)cs2)cn1 [compound 345, N-[4-(2-chlorophenyl)thiazol-2-yl]-2-methoxy-pyrimidine-5-carboxamide] | +++ (+++: <−6)
O=C(Nc1nc(-c2ccccc2Cl)cs1)c1ccc(N2CCOCC2)nc1 [compound 346, N-[4-(2-chlorophenyl)thiazol-2-yl]-6-morpholino-pyridine-3-carboxamide] | +++ (+++: <−6)
Cc1ccc(C(=O)Nc2nc(-c3cnccc3C)cs2)cn1 [compound 348, 6-methyl-N-[4-(4-methyl-3-pyridyl)thiazol-2-yl]pyridine-3-carboxamide] | + (+: >−5)
COc1ncc(C(=O)Nc2nc(-c3cnccc3C)cs2)cn1 [compound 349, 2-methoxy-N-[4-(4-methyl-3-pyridyl)thiazol-2-yl]pyrimidine-5-carboxamide] | − (−: inactive)
Cc1ccc(C(=O)Nc2nc(-c3ccccc3N3CCC3)cs2)cn1 [compound 350, N-[4-[2-(azetidin-1-yl)phenyl]thiazol-2-yl]-6-methyl-pyridine-3-carboxamide] | − (−: inactive)
COc1ccccc1-c1csc(NC(=O)c2ccc(N3CCOCC3)cc2)n1 [compound 351, N-[4-(2-methoxyphenyl)thiazol-2-yl]-4-morpholino-benzamide] | +++ (+++: <−6)
O=C(Nc1nc(-c2cccnc2)cs1)c1ccc(N2CCOCC2)cc1 [compound 352, 4-morpholino-N-[4-(3-pyridyl)thiazol-2-yl]benzamide] | + (+: >−5)
COc1cc(OC)cc(-c2csc(NC(=O)c3ccc(N4CCOCC4)cc3)n2)c1 [compound 353, N-[4-(3,5-dimethoxyphenyl)thiazol-2-yl]-4-morpholino-benzamide] | +++ (+++: <−6)
Cn1cc(-c2csc(NC(=O)c3ccc(N4CCOCC4)cc3)n2)cn1 [compound 354, N-[4-(1-methylpyrazol-4-yl)thiazol-2-yl]-4-morpholino-benzamide] | ++ (++: −5 to −6)
COc1ncc(C(=O)Nc2nc(-c3cccnc3C)cs2)cn1 [compound 355, 2-methoxy-N-[4-(2-methyl-3-pyridyl)thiazol-2-yl]pyrimidine-5-carboxamide] | − (−: inactive)
COc1ncc(C(=O)Nc2nc(-c3cccnc3OC)cs2)cn1 [compound 356, 2-methoxy-N-[4-(2-methoxy-3-pyridyl)thiazol-2-yl]pyrimidine-5-carboxamide] | − (−: inactive)
COc1cccc(-c2csc(NC(=O)c3ccc(N4CCOCC4)cc3)n2)c1 [compound 357, N-[4-(3-methoxyphenyl)thiazol-2-yl]-4-morpholino-benzamide] | + (+: >−5)
O=C(Nc1nc(-c2ccccc2Cl)cs1)c1cnc(N2CCOCC2)nc1 [compound 358, N-[4-(2-chlorophenyl)thiazol-2-yl]-2-morpholino-pyrimidine-5-carboxamide] | − (−: inactive)
O=C(Nc1nc(-c2ccccc2)cs1)c1ccc(N2CCOCC2)cc1 [compound 359, 4-morpholino-N-(4-phenylthiazol-2-yl)benzamide] | + (+: >−5)
O=C(Nc1nc(-c2ccccc2Cl)cs1)N1CCC(N2CCOCC2)CC1 [compound 360, N-[4-(2-chlorophenyl)thiazol-2-yl]-4-morpholino-piperidine-1-carboxamide] | + (+: >−5)
N#Cc1ccccc1-c1csc(NC(=O)c2ccc(N3CCOCC3)cc2)n1 [compound 361, N-[4-(2-cyanophenyl)thiazol-2-yl]-4-morpholino-benzamide] | − (−: inactive)
O=C(Nc1nc(-c2ccccc2Cl)cs1)C1CN(C2CCOCC2)C1 [compound 363, N-[4-(2-chlorophenyl)thiazol-2-yl]-1-tetrahydropyran-4-yl-azetidine-3-carboxamide] | ++ (++: −5 to −6)
CS(=O)(=O)N1CCN(c2ccc(C(=O)Nc3nc(-c4ccccc4Cl)cs3)cc2)CC1 [compound 365, N-[4-(2-chlorophenyl)thiazol-2-yl]-4-(4-methylsulfonylpiperazin-1-yl)benzamide] | +++ (+++: <−6)
O=C(Nc1nc(-c2ccccc2Cl)cs1)c1ccc(N2CCOCC2)nn1 [compound 366, N-[4-(2-chlorophenyl)thiazol-2-yl]-6-morpholino-pyridazine-3-carboxamide] | +++ (+++: <−6)
